pIC50: −log10 of the molar value.
Key:
HT-29 [1] = assay: Cell cycle arrest in human HT-29 cells assessed as accumulation at sub-G1 phase at 0.05 uM after 24 hrs by flow cytometry; assay type: functional
HT-29 [2] = assay: Cell cycle arrest in human HT-29 cells assessed as accumulation at sub-G1 phase at 0.1 uM after 48 hrs by flow cytometry; assay type: functional
HT-29 [3] = assay: Cell cycle arrest in human HT-29 cells assessed as accumulation at sub-G1 phase at 2.5 uM after 48 hrs by flow cytometry; assay type: functional
HeLa = assay: Antiproliferative activity against human HeLa cells after 3 days by MTT assay; assay type: functional, cell-based; settings: 72 h
HT-29 [4] = assay: Cell cycle arrest in human HT-29 cells assessed as accumulation at sub-G1 phase at 0.05 uM after 48 hrs by flow cytometry; assay type: functional
A549 = assay: Antiproliferative activity against human A549 cells after 3 days by MTT assay; assay type: functional, cell-based; settings: A549, 72 h
HT-29 [5] = assay: Cell cycle arrest in human HT-29 cells assessed as accumulation at sub-G1 phase at 1 uM after 48 hrs by flow cytometry; assay type: functional
HT-29 [6] = assay: Cell cycle arrest in human HT-29 cells assessed as accumulation at sub-G1 phase at 0.5 uM after 24 hrs by flow cytometry; assay type: functional
HT-29 [7] = assay: Cell cycle arrest in human HT-29 cells assessed as accumulation at sub-G1 phase at 1 uM after 24 hrs by flow cytometry; assay type: functional
HT-29 [8] = assay: Cell cycle arrest in human HT-29 cells assessed as accumulation at sub-G1 phase at 0.25 uM after 48 hrs by flow cytometry; assay type: functional
HT-29 [9] = assay: Cell cycle arrest in human HT-29 cells assessed as accumulation at sub-G1 phase at 2.5 uM after 24 hrs by flow cytometry; assay type: functional
HT-29 [10] = assay: Antiproliferative activity against human HT-29 cells after 3 days by MTT assay; assay type: functional, cell-based; settings: HT-29, 72 h
HT-29 [11] = assay: Cell cycle arrest in human HT-29 cells assessed as accumulation at sub-G1 phase at 0.25 uM after 24 hrs by flow cytometry; assay type: functional
HT-29 [12] = assay: Cell cycle arrest in human HT-29 cells assessed as accumulation at sub-G1 phase at 0.1 uM after 24 hrs by flow cytometry; assay type: functional
HT-29 [13] = assay: Cell cycle arrest in human HT-29 cells assessed as accumulation at sub-G1 phase at 0.5 uM after 48 hrs by flow cytometry; assay type: functional

Row | pIC50 (HeLa) | pIC50 (A549) | pIC50 (HT-29 [10]) | SMILES | Activity (HT-29 [1]) | Activity (HT-29 [2]) | Activity (HT-29 [3]) | Activity (HT-29 [4]) | Activity (HT-29 [5]) | Activity (HT-29 [6]) | Activity (HT-29 [7]) | Activity (HT-29 [8]) | Activity (HT-29 [9]) | Activity (HT-29 [11]) | Activity (HT-29 [12]) | Activity (HT-29 [13])
1 | 7.15 | 7.22 | 7.47 | Nc1ccc2cc3ccccc3nc2c1CO | 3.2% | 4.7% | 23.4% | 0.7% | 31.7% | 9.7% | 5.2% | 18.7% | 13.7% | 0.7% | 0.1% | 26.3%
2 | 7.15 | 6.89 | 7.15 | Nc1ccc2cc3ccc(I)cc3nc2c1CO | 3.9% | 22.6% | 12% | 2.14% | 14.8% | 1.7% | 8.7% | 23.7% | 8.9% | 6.3% | 1.4% | 19.3%

— ChEMBL document CHEMBL1153811, “Unusual cellular uptake of cytotoxic 4-hydroxymethyl-3-aminoacridine” (Eur J Med Chem, 2009)
